PubChem BioAssay (NCI)
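Compound exposure: 48 hours, 5 concentrations, 96-well plates. TGI: total growth inhibition.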

How the values were obtained:
Test in all cases: NCI anticancer screen, dose series, 48 h
LOX IMVI melanoma = system: LOX IMVI melanoma
UO-31 renal = system: UO-31 renal
HOP-62 NSCLC = system: HOP-62 NSCLC
HOP-92 NSCLC = system: HOP-92 NSCLC
UACC-62 melanoma = system: UACC-62 melanoma
MDA-N = system: MDA-N
HCT-116 colon = system: HCT-116 colon
SF-539 CNS = system: SF-539 CNS
T-47D breast = system: T-47D breast
OVCAR-5 ovarian = system: OVCAR-5 ovarian
SW-620 colon = system: SW-620 colon
EKVX NSCLC = system: EKVX NSCLC
RPMI-8226 leukemia = system: RPMI-8226 leukemia
BT-549 breast = system: BT-549 breast
COLO 205 colon = system: COLO 205 colon
UACC-257 melanoma = system: UACC-257 melanoma
MDA-MB-231 breast = system: MDA-MB-231 breast
HCT-15 colon = system: HCT-15 colon
CAKI-1 renal = system: CAKI-1 renal
IGROV1 ovarian = system: IGROV1 ovarian
SNB-19 CNS = system: SNB-19 CNS
HL-60(TB) leukemia = system: HL-60(TB) leukemia
PC-3 prostate = system: PC-3 prostate
ACHN renal = system: ACHN renal
KM12 colon = system: KM12 colon
SF-295 CNS = system: SF-295 CNS
K-562 leukemia = system: K-562 leukemia
TK-10 renal = system: TK-10 renal
A549 NSCLC = system: A549 NSCLC
SK-MEL-5 melanoma = system: SK-MEL-5 melanoma
CCRF-CEM leukemia = system: CCRF-CEM leukemia
SK-MEL-2 melanoma = system: SK-MEL-2 melanoma
MCF7 breast = system: MCF7 breast
SF-268 CNS = system: SF-268 CNS
U251 CNS = system: U251 CNS
HS 578T breast = system: HS 578T breast
786-0 renal = system: 786-0 renal
OVCAR-8 ovarian = system: OVCAR-8 ovarian
MOLT-4 leukemia = system: MOLT-4 leukemia
SN12C renal = system: SN12C renal
NCI-H460 lung = system: NCI-H460 lung
DU-145 prostate = system: DU-145 prostate
SR leukemia = system: SR leukemia
HCC-2998 colon = system: HCC-2998 colon
SK-MEL-28 melanoma = system: SK-MEL-28 melanoma
RXF 393 renal = system: RXF 393 renal
OVCAR-4 ovarian = system: OVCAR-4 ovarian
MDA-MB-435 = system: MDA-MB-435
M14 melanoma = system: M14 melanoma
NCI/ADR-RES ovarian = system: NCI/ADR-RES ovarian
A498 renal = system: A498 renal
OVCAR-3 ovarian = system: OVCAR-3 ovarian
SK-OV-3 ovarian = system: SK-OV-3 ovarian
HT29 colon = system: HT29 colon
SNB-75 CNS = system: SNB-75 CNS
MALME-3M melanoma = system: MALME-3M melanoma
NCI-H23 lung = system: NCI-H23 lung
NCI-H226 lung = system: NCI-H226 lung

O=C1/C(=C/c2cccc([N+](=O)[O-])c2)N=C(c2ccccc2)N1c1nc2c(Cl)cc(Cl)cc2s1
TGI (LOX IMVI melanoma): 32.7 µM
TGI (UO-31 renal): 49.6 µM
TGI (HOP-62 NSCLC): 45 µM
TGI (HOP-92 NSCLC): 77.9 µM
TGI (UACC-62 melanoma): > 100 µM
TGI (MDA-N): 39.2 µM
TGI (HCT-116 colon): 37.4 µM
TGI (SF-539 CNS): 48.1 µM
TGI (T-47D breast): 68.9 µM
TGI (OVCAR-5 ovarian): 87.9 µM
TGI (SW-620 colon): 73.1 µM
TGI (EKVX NSCLC): 53.3 µM
TGI (RPMI-8226 leukemia): > 100 µM
TGI (BT-549 breast): 94.6 µM
TGI (COLO 205 colon): > 100 µM
TGI (UACC-257 melanoma): > 100 µM
TGI (MDA-MB-231 breast): > 100 µM
TGI (HCT-15 colon): > 100 µM
TGI (CAKI-1 renal): > 100 µM
TGI (IGROV1 ovarian): 58.2 µM
TGI (SNB-19 CNS): 65.4 µM
TGI (HL-60(TB) leukemia): 60.9 µM
TGI (PC-3 prostate): 64.4 µM
TGI (ACHN renal): 74.2 µM
TGI (KM12 colon): 45 µM
TGI (SF-295 CNS): > 100 µM
TGI (K-562 leukemia): > 100 µM
TGI (TK-10 renal): > 100 µM
TGI (A549 NSCLC): 52.2 µM
TGI (SK-MEL-5 melanoma): 33.5 µM
TGI (CCRF-CEM leukemia): 23.5 µM
TGI (SK-MEL-2 melanoma): 48 µM
TGI (MCF7 breast): 93.8 µM
TGI (SF-268 CNS): 78.1 µM
TGI (U251 CNS): 37.2 µM
TGI (HS 578T breast): 73.6 µM
TGI (786-0 renal): > 100 µM
TGI (OVCAR-8 ovarian): 49.5 µM
TGI (MOLT-4 leukemia): 71.8 µM
TGI (SN12C renal): 54.7 µM
TGI (NCI-H460 lung): > 100 µM
TGI (DU-145 prostate): 70.1 µM
TGI (SR leukemia): 57.9 µM
TGI (HCC-2998 colon): 61.9 µM
TGI (SK-MEL-28 melanoma): > 100 µM
TGI (RXF 393 renal): 55 µM
TGI (OVCAR-4 ovarian): 71.8 µM
TGI (MDA-MB-435): 46 µM
TGI (M14 melanoma): 46.8 µM
TGI (NCI/ADR-RES ovarian): 85.4 µM
TGI (A498 renal): 57.8 µM
TGI (OVCAR-3 ovarian): 39.1 µM
TGI (SK-OV-3 ovarian): 85.7 µM
TGI (HT29 colon): 40 µM

CCOc1ccc(N=NC2C(=O)N(C(=O)CC(=O)Nc3ccc(C)cc3)N=C2C)cc1 (centres undefined)
TGI (LOX IMVI melanoma): 27.7 µM
TGI (UO-31 renal): 78.7 µM
TGI (HOP-62 NSCLC): 34.3 µM
TGI (HOP-92 NSCLC): 39.9 µM
TGI (SNB-75 CNS): 23.2 µM
TGI (MALME-3M melanoma): > 100 µM
TGI (UACC-62 melanoma): 52.6 µM
TGI (MDA-N): 13.9 µM
TGI (HCT-116 colon): 25.8 µM
TGI (SF-539 CNS): 36.5 µM
TGI (T-47D breast): > 100 µM
TGI (OVCAR-5 ovarian): > 100 µM
TGI (SW-620 colon): > 100 µM
TGI (EKVX NSCLC): 40.9 µM
TGI (BT-549 breast): > 100 µM
TGI (COLO 205 colon): > 100 µM
TGI (UACC-257 melanoma): > 100 µM
TGI (MDA-MB-231 breast): 35.8 µM
TGI (HCT-15 colon): > 100 µM
TGI (CAKI-1 renal): > 100 µM
TGI (IGROV1 ovarian): > 100 µM
TGI (SNB-19 CNS): 51 µM
TGI (HL-60(TB) leukemia): > 100 µM
TGI (PC-3 prostate): > 100 µM
TGI (ACHN renal): > 100 µM
TGI (KM12 colon): > 100 µM
TGI (NCI-H23 lung): > 100 µM
TGI (SF-295 CNS): 49.4 µM
TGI (TK-10 renal): 93.2 µM
TGI (A549 NSCLC): > 100 µM
TGI (SK-MEL-5 melanoma): > 100 µM
TGI (CCRF-CEM leukemia): > 100 µM
TGI (SK-MEL-2 melanoma): > 100 µM
TGI (MCF7 breast): > 100 µM
TGI (SF-268 CNS): 75.2 µM
TGI (U251 CNS): 32.2 µM
TGI (HS 578T breast): 40.1 µM
TGI (786-0 renal): 29.5 µM
TGI (OVCAR-8 ovarian): 31.2 µM
TGI (MOLT-4 leukemia): > 100 µM
TGI (SN12C renal): > 100 µM
TGI (NCI-H460 lung): 43.8 µM
TGI (DU-145 prostate): > 100 µM
TGI (SR leukemia): > 100 µM
TGI (HCC-2998 colon): > 100 µM
TGI (SK-MEL-28 melanoma): > 100 µM
TGI (OVCAR-4 ovarian): 95.7 µM
TGI (MDA-MB-435): 10.9 µM
TGI (M14 melanoma): > 100 µM
TGI (NCI/ADR-RES ovarian): 79.2 µM
TGI (A498 renal): 52.5 µM
TGI (NCI-H226 lung): 88.4 µM
TGI (OVCAR-3 ovarian): > 100 µM
TGI (HT29 colon): > 100 µM

COP(=O)(OC)C(C)(C)NC(=O)NC(F)(F)F
TGI (LOX IMVI melanoma): > 100 µM
TGI (UO-31 renal): > 100 µM
TGI (HOP-62 NSCLC): > 100 µM
TGI (SNB-75 CNS): > 100 µM
TGI (MALME-3M melanoma): > 100 µM
TGI (UACC-62 melanoma): > 100 µM
TGI (MDA-N): > 100 µM
TGI (HCT-116 colon): > 100 µM
TGI (SF-539 CNS): > 100 µM
TGI (T-47D breast): > 100 µM
TGI (OVCAR-5 ovarian): > 100 µM
TGI (SW-620 colon): > 100 µM
TGI (EKVX NSCLC): > 100 µM
TGI (RPMI-8226 leukemia): > 100 µM
TGI (BT-549 breast): > 100 µM
TGI (COLO 205 colon): > 100 µM
TGI (UACC-257 melanoma): > 100 µM
TGI (MDA-MB-231 breast): > 100 µM
TGI (HCT-15 colon): > 100 µM
TGI (CAKI-1 renal): 16.6 µM
TGI (IGROV1 ovarian): > 100 µM
TGI (SNB-19 CNS): > 100 µM
TGI (HL-60(TB) leukemia): > 100 µM
TGI (PC-3 prostate): > 100 µM
TGI (ACHN renal): > 100 µM
TGI (KM12 colon): > 100 µM
TGI (NCI-H23 lung): > 100 µM
TGI (SF-295 CNS): > 100 µM
TGI (K-562 leukemia): > 100 µM
TGI (TK-10 renal): > 100 µM
TGI (A549 NSCLC): > 100 µM
TGI (SK-MEL-5 melanoma): > 100 µM
TGI (CCRF-CEM leukemia): > 100 µM
TGI (SK-MEL-2 melanoma): > 100 µM
TGI (MCF7 breast): > 100 µM
TGI (SF-268 CNS): > 100 µM
TGI (U251 CNS): > 100 µM
TGI (HS 578T breast): > 100 µM
TGI (786-0 renal): > 100 µM
TGI (OVCAR-8 ovarian): > 100 µM
TGI (MOLT-4 leukemia): > 100 µM
TGI (SN12C renal): > 100 µM
TGI (NCI-H460 lung): > 100 µM
TGI (DU-145 prostate): > 100 µM
TGI (SR leukemia): > 100 µM
TGI (HCC-2998 colon): > 100 µM
TGI (SK-MEL-28 melanoma): > 100 µM
TGI (RXF 393 renal): > 100 µM
TGI (OVCAR-4 ovarian): > 100 µM
TGI (MDA-MB-435): > 100 µM
TGI (M14 melanoma): > 100 µM
TGI (NCI/ADR-RES ovarian): > 100 µM
TGI (NCI-H226 lung): 91.1 µM
TGI (OVCAR-3 ovarian): > 100 µM
TGI (SK-OV-3 ovarian): > 100 µM
TGI (HT29 colon): > 100 µM
